One test relates to S. pyrogenes (UC 152). In words: Antibiotic potency: CD50 in mice challenged with a lethal dose of microorganism. Type of test: in vivo. To be noted: oral intubation at 0, 24, 48 and 72 hours after interperitoneal challenge with S. pyrogenes (UC 152), dose curing 50% of mice, mean (95% confidence limits); for ED50: Mus musculus. The procedure:
(§1) The antibiotic potency of the salts of the present invention is illustrated by the data below providing CD50's of the various antibiotic agents, dissolved in inert vehicle, when administered to mice by oral intubation at 0, 24, 48, and 72 hours after challenge of the mice with an interperitoneally administered dose of microorganism which, in the absence of antibiotic agent, would be lethal. The CD50 for an agent is the dose at which 50% of the mice are cured under such a dosing schedule. In the data below the first number in each entry is the mean value and the numbers in parenthesis are the 95% confidence limits: […]

The subject of a further test is S. aureus. The test is described as above. Format: in vivo. The conditions noted are these: oral intubation at 0, 24, 48 and 72 hours after interperitoneal challenge with S. aureus, dose curing 50% of mice, mean (95% confidence limits). As for the experimental part: as §1

The structures appear in SMILES notation. Structures can show the parent of a compound that is named as a salt.

By ED50 is commonly meant the dose at which the effect has come halfway, by size or by number of responders. A lower ED50 goes with greater potency.

For `CC1(C)S[C@@H]2[C@H](NC(=O)[C@H](N)c3ccccc3)C(=O)N2[C@H]1C(=O)O` [ampicillin, 6-[D-(2-amino-2-phenylacetamido)] penicillanicacid], the ED50 in the test on S. pyrogenes (UC 152) turned out to be 0.49 µmol/kg; in the test on S. aureus (Staphylococcus aureus, po), 2 µmol/kg.

With `CCOC(=O)OC(C)OC(=O)[C@@H]1N2C(=O)[C@@H](NC(=O)[C@H](N)c3ccccc3)[C@H]2SC1(C)C` (stereo partly drawn) [bacampicillin 1-naphthalene-sulfonate, Bacampicillin 1-Naphthalenesulfonate], the CD50 in the test with S. pyrogenes (UC 152) is recorded as 0.15 (0.10-0.20) micromoles/kg; in the test with S. aureus, 0.74 (0.43-1.3) micromoles/kg.

In the test with S. pyrogenes (UC 152), `CCOC(=O)OC(C)OC(=O)[C@@H]1N2C(=O)[C@@H](NC(=O)[C@H](N)c3ccccc3)[C@H]2SC1(C)C` (stereo partly drawn) [bacampicillin-HCl, bacampicillin hydrochloride] showed an ED50 of 0.19 µmol/kg. In addition, in the test with S. aureus (hydrochloride), the CD50 is reported as 1.5 (1.0-2.3) micromoles/kg.

The values are drawn from EP0089767A1, “Acid addition salts of a penicillanic acid derivative” (UPJOHN LIMITED, priority 1982, dated 1983).
